Structures can show the parent of a compound that is named as a salt.
How the values were obtained:
[1] = molecular target: T1, h-5-HT6 receptor (Homo sapiens, UniProt P50406); experiment: 5-HT6 receptor binding assay (displacement of [3H]-LSD); settings: membranes of HEK293 cells expressing h-5-HT6 receptor, 1 nM [3H]-LSD
T1 construct: expressed in transfected cells
Protocol: Displacement of radioligands binding to the following cloned human receptors
Cells from stable clonal cell lines expressing the corresponding receptor (5-HT6, α1-adrenergic, dopamine D2 or histamine H1 receptors) were washed with PBS (w/o Ca^++, Mg^++) and harvested in PBS with 0.02% EDTA. The cells were collected by centrifugation at 500 g for 10 min. at 4° C., washed with PBS and centrifuged (500 g, 10 min. 4° C.). The pellets were stored at −80° C. until use. For membrane preparation, the thawed cell pellet was resuspended in ice-cold sucrose buffer (0.25 M sucrose, 10 mM Hepes (pH 7.4), 1 mM Phenylmethylsulfonyl fluoride (PMSF) in DMSO, 5 μg/ml Pepstatin-A, 3 mM EDTA, 0.025% Bacitracin) and homogenized with a Branson Sonifier W-250 (Settings: Timer 4; Output Control 3; Duty Cycle constant; 2 to 3 cycles). Cell disruption was checked with the aid of a microscope. Remaining unbroken cells were pelleted at 1.000 g for 10 min. at 4° C. The sucrose buffer supernatant was then centrifuged at 60.000 g for 1 h at 4° C. (Beckman Ultrazentrifuge XL 80). The pellet was resuspended in 30 ml ice-cold Tris buffer (20 mM TRIS (pH 7.4), 5 μg/ml Pepstatin A, 0.1 mM PMSF, 3 mM EDTA) by pipetting through a 10 ml serological pipet and centrifuged for 1 h at 4° C. at 60.000 g. A final resuspension was performed in a small volume of ice-cold Tris buffer (see above) by pressing through a serological pipet followed by ultrasonic treatment with a Branson Sonifier W-250 (Settings: Timer 1; Output Control 3; Duty Cycle constant; 1 cycle). Protein concentration was determined (BCA-Kit; Pierce) and aliquots stored at −80° C. or in liquid nitrogen for long-term storage.
All receptor binding experiments were carried out in the corresponding assay buffer in a total volume of 200 μl in the presence of various concentrations of test compound (10^−5 M to 10^−9 M, tenfold serial dilution, duplicate determinations). The assays were terminated by filtration on polyethylenimine (PEI 0.1% or 0.3%) presoaked Packard Unifilter Plates (GF/C or GF/B) with a Tomtec MachIII U 96 well-plate harvester. After the plates had been dried for 2 h at 55° C. in a drying chamber scintillation cocktail (BetaPlate Scint; PerkinElmer) was added. Radioactivity was measured in a Microbeta Trilux two hours after the addition of the scintillation mixture. Data derived from liquid scintillation counting were analysed by iterative non-linear regression analysis with the use of the Statistical Analysis System (SAS): a program similar to “LIGAND” as described by Munson and Rodbard (Analytical Biochemistry 107, 220-239 (1980).
HEK293 cells stably expressing the h-5-HT6 receptor (NCBI Reference Sequence XM 001435) were cultured in RPMI1640 medium supplemented with 25 mM HEPES, 10% fetal calf serum and 1-2 mM glutamine. The membrane preparation was performed as described in section 1. […] Non-specific binding was defined with 1 μM methiothepin. The binding reaction was carried out for 3.5 h at room temperature. During the incubation, the plates were shaken on a plate shaker at 100 rpm and terminated by filtration on Packard Unifilter GF/C (0.1% PEI) plates, followed by 2 wash cycles with ice-cold 50 mM Tris-HCl, 5 mM CaCl2.
Data derived from liquid scintillation counting were analyzed by iterative non-linear regression analysis with the use of the Statistical Analysis System (SAS): a program similar to “LIGAND” as described by Munson and Rodbard (Anal. Biochem. 1980, 107, 220-239). Fitting was performed according to formulae described by Feldman (Anal. Biochem. 1972, 48, 317-338). IC50, nH and Ki values were expressed as geometrical mean.

[2] = molecular target: T2, dopamine D2 receptor (Homo sapiens, UniProt P14416); experiment: Dopamine D2 receptor binding assay (displacement of [125I]-iodospiperone); settings: saturation binding experiments, HEK293 D2 membranes; read-out: KD of radioligand
T2 construct: expressed in transfected cells
T2 sequence (P14416 whole entry): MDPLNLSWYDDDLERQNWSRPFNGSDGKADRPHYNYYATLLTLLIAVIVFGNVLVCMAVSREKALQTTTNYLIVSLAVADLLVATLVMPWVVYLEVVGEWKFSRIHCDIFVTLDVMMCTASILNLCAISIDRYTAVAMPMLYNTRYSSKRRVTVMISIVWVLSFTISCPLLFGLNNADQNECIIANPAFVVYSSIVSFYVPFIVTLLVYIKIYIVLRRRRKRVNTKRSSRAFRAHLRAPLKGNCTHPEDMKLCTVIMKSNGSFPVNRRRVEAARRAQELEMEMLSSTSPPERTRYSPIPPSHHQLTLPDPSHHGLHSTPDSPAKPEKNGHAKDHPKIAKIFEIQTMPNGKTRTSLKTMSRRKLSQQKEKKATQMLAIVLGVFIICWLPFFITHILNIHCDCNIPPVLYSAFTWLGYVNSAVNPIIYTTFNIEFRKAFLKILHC
Protocol: The pellets were stored at −80° C. until use. […] (Beckman Ultrazentrifuge XL 80).
Non-specific binding was defined with 1 μM haloperidol.

T1 sequence (P50406 whole entry): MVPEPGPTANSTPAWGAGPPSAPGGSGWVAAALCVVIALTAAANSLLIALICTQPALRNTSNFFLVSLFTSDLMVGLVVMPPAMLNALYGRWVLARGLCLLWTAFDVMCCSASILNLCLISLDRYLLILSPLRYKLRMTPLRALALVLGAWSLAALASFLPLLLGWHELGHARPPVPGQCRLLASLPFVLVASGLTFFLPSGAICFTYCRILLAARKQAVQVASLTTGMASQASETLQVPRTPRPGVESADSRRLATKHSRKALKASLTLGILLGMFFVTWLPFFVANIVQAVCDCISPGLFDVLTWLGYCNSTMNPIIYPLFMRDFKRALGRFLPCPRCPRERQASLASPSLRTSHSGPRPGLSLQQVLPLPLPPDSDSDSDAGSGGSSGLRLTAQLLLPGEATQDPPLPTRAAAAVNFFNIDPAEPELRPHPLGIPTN

Compound | Ki [1] | Kd [2]
COCc1ccccc1NS(=O)(=O)c1ccc(OC)c(C2CCNCC2)c1 [Example 6, 4-Methoxy-N-(2-methoxymethyl-phenyl)-3-piperidin-4-yl-benzenesulfonamide hydrochloride] | < 100 nM | 
COc1ccc(S(=O)(=O)Nc2cc(C)ccc2OC(F)F)cc1C1CCN(C)CC1 [Example 7, N-(2-Difluoromethoxy-5-methyl-phenyl)-4-methoxy-3-(1-methyl-piperidin-4-yl)-benzenesulfonamide hydrochloride] | < 10 nM | 
COc1ccc(S(=O)(=O)Nc2ccc(C)cc2OC(F)F)cc1C1CCNCC1 [Example 5, N-(2-Difluoromethoxy-4-methyl-phenyl)-4-methoxy-3-piperidin-4-yl-benzenesulfonamide hydrochloride] | < 20 nM | 
COc1ccc(S(=O)(=O)Nc2cc(C)ccc2OC(F)F)cc1C1CCN(C)C1 (centres unmarked) [Example 2, N-(2-Difluoromethoxy-5-methyl-phenyl)-4-methoxy-3-(1-methyl-pyrrolidin-3-yl)-benzenesulfonamide hydrochloride] | < 10 nM | 
COc1ccc(S(=O)(=O)Nc2cc(C)ccc2OC(F)F)cc1C1CCNCC1 [Example 4, N-(2-Difluoromethoxy-5-methyl-phenyl)-4-methoxy-3-piperidin-4-yl-benzenesulfonamide hydrochloride] | < 10 nM | 

The next lines start with the values.

Ki [1] | Kd [2] | Compound
< 20 nM |  | COCc1ccccc1NS(=O)(=O)c1ccc(OC)c(C2CCNC2)c1 (centres unmarked) [Example 3, 4-Methoxy-N-(2-methoxymethyl-phenyl)-3-pyrrolidin-3-yl-benzenesulfonamide hydrochloride]
 | 0.22 nM | iodospiperone [[^125I]-iodospiperone]
< 10 nM |  | COc1ccc(S(=O)(=O)Nc2cc(C)ccc2OC(F)F)cc1C1CCNC1 (centres unmarked) [Example 1, N-(2-Difluoromethoxy-5-methyl-phenyl)-4-methoxy-3-pyrrolidin-3-yl-benzenesulfonamide hydrochloride]
